Assay results: patent US20240150360A1 (THE REGENTS OF THE UNIVERSITY OF MICHIGAN, priority 2021, published 2024)
Where two headings read alike, the source gives them in different places.

How the values were obtained:
CBP = biological target: T1, CBP (Homo sapiens, UniProt Q92793); assay: CBP degradation in 22Rv1 cells (5 h); type: cell-based; details: 22Rv1 cells, 5 h; for Dmax: 22Rv1, 5 h, read-out: CBP Degradation (22Rv1, 5 h) DCmax
T1 construct: endogenous in cells; host or cells: 22Rv1 (ATCC CRL-2505) human prostate cancer cells
From the text: Biological Assays. […] Cells with 3-8 passages after purchase were used in experiments.

22Rv1 cells = assay: Cell growth inhibition assay (CellTiter-Glo) in 22Rv1; type: cell-based, human; details: 22Rv1 cells, 96 h incubation, read-out: Cell Growth Inhibition (IC50) 22Rv1
Description: Biological Assays. CBP/p300 degradation activity and cell growth inhibition were evaluated in the human prostate cancer cell line 22Rv1 (ATCC© CRL-2505™) purchased from the American Type Culture Collection (ATCC), Manassas, VA, and maintained and cultured in Dulbecco's Modified Eagle's medium (DMEM) containing 10% fetal bovine serum, 1 unit/ml of penicillin and 1 μg/ml of streptomycin. Cells with 3-8 passages after purchase were used in experiments.
Cell Growth Inhibition Assay Protocol. 22RV1 cells were seeded at a concentration of 4000 cells/well in 100 μl culture medium and 2 μl of test compound (final concentration start from 10 μM and 3 times dilution) into 96 well microplates (Corning 3903). The cell cultures were incubated for 96 h at +37° C. and 5% CO2. The plate and its contents were equilibrated to room temperature for approximately 30 minutes. 100 μl of CellTiter-Glo® 2.0 Reagent equal to the volume of cell culture medium present was added in each well. The contents were mixed for 2 minutes on an orbital shaker. The plate was allowed to incubate at room temperature for 10 minutes. The luminescence was recorded. The data was analyzed by Prism GraphPad 8.

HL60 = assay: Cell growth inhibition in HL60; type: cell-based; details: read-out: Cell Growth Inhibition (IC50) HL60
[1] = Homo sapiens, HL-60, HL60 cells

T1 sequence (Q92793 whole entry): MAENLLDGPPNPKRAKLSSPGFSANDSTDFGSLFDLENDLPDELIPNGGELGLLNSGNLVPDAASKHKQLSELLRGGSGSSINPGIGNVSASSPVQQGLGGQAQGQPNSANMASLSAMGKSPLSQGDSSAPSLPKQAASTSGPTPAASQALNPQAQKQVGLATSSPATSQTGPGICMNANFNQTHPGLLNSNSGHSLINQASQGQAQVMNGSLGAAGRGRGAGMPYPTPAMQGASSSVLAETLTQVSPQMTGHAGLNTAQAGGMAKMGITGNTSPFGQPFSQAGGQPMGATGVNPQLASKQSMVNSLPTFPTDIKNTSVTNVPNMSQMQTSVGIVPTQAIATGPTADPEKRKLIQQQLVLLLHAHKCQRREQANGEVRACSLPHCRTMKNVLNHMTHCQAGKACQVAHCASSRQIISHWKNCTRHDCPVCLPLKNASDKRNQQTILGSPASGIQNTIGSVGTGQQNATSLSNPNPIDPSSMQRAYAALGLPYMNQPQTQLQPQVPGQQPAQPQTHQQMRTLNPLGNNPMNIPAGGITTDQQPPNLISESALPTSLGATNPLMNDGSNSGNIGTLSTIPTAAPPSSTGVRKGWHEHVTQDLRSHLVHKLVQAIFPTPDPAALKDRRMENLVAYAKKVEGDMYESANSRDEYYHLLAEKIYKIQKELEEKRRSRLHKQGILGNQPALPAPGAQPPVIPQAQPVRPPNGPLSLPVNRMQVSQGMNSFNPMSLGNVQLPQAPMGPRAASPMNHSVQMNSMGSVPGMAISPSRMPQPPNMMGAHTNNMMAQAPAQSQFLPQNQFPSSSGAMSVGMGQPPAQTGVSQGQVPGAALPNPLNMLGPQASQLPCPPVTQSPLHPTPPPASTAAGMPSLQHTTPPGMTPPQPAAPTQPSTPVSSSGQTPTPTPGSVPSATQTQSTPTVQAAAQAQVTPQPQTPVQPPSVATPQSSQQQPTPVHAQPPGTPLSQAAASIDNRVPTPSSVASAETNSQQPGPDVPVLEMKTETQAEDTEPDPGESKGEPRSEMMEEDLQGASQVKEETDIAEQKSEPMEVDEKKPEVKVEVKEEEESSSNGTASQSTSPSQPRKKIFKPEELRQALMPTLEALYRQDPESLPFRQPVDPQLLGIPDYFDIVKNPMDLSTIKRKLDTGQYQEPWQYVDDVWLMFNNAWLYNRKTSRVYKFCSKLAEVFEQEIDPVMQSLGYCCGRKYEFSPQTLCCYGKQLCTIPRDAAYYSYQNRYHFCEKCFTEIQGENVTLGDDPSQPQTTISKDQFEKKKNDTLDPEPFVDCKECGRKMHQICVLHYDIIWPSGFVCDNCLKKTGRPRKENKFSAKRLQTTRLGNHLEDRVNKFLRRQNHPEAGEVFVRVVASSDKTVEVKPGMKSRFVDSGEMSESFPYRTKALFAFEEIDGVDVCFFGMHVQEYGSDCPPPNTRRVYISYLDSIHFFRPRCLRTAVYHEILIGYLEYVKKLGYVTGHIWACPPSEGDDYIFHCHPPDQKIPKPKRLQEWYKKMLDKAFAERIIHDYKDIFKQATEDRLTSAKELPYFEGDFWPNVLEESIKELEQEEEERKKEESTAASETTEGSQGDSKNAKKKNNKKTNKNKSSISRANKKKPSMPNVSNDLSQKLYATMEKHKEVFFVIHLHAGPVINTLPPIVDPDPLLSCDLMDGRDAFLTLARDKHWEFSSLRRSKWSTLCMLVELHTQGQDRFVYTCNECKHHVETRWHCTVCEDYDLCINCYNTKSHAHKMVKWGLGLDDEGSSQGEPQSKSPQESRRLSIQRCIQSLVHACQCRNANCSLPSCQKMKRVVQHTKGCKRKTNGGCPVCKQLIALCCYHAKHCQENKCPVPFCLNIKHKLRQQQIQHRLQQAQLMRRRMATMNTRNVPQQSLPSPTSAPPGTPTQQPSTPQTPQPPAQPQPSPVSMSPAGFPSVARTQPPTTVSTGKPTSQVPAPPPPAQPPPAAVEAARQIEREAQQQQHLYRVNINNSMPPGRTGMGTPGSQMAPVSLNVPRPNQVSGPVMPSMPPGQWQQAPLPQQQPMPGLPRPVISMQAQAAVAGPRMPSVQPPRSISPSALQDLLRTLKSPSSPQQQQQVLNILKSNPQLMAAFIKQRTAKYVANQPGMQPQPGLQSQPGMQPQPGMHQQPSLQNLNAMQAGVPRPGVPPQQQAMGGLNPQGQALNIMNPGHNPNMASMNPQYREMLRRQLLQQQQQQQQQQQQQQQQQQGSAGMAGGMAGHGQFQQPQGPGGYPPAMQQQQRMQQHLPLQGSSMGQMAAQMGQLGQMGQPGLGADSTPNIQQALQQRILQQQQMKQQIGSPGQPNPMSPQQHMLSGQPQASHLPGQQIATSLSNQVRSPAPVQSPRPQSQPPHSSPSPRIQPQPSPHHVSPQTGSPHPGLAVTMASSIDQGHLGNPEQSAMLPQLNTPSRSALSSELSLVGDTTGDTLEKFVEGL

| SMILES | Dmax (CBP) [%] | DC50 (CBP) [nM] | IC50 (22Rv1 cells; Homo sapiens, 22Rv1, 96 h) [nM] | IC50 (HL60; [1]) [nM] | CBP Degradation (22Rv1, 5 h) DCmax (CBP) | IC50 (22Rv1 cells) [nM] | IC50 (HL60; HL60 cells) [nM] |
| --- | --- | --- | --- | --- | --- | --- | --- |
| CC(=O)N1CCc2c(c(N3CCCc4cc(-c5cnn(C6CCN(C(=O)CN7CCc8cc9c(cc8C7)C(=O)N(C7CCC(=O)NC7=O)C9=O)CC6)c5)c(C(F)F)cc43)nn2C2CCOCC2)C1 (stereo not shown) [CP-071, 6-(2-(4-(4-(1-(5-acetyl-1-(tetrahydro-2H-pyran-4-yl)-4,5,6,7-tetrahydro-1H-pyrazolo[4,3-c]pyridin-3-yl)-7-(difluoromethyl)-1,2,3,4-tetrahydroquinolin-6-yl)-1H-pyrazol-1-yl)piperidin-1-yl)-2-oxoethyl)-2-(2,6-dioxopiperidin-3-yl)-5,6,7,8-tetrahydro-1H-pyrrolo[3,4-g]isoquinoline-1,3(2H)-dione] | > 90 | < 10 | < 1000 | < 100 | – | – | – |
| CC(=O)N1CCc2c(c(N3CCCc4cc(-c5cnn(C)c5)c(C(F)F)cc43)nn2C2CCN(CC(=O)N3CCc4cc5c(cc4C3)C(=O)N(C3CCC(=O)NC3=O)C5=O)CC2)C1 (stereo not shown) [CP-002, 6-(2-(4-(5-acetyl-3-(7-(difluoromethyl)-6-(1-methyl-1H-pyrazol-4-yl)-3,4-dihydroquinolin-1(2H)-yl)-4,5,6,7-tetrahydro-1H-pyrazolo[4,3-c]pyridin-1-yl)piperidin-1-yl)acetyl)-2-(2,6-dioxopiperidin-3-yl)-5,6,7,8-tetrahydro-1H-pyrrolo[3,4-g]isoquinoline-1,3(2H)-dione] | > 90 | < 10 | < 10000 | < 1000 | – | – | – |
| CC(=O)N1CCc2c(c(N3CCCc4cc(-c5cnn(CCCCCN6Cc7cc8c(cc7C6)C(=O)N(C6CCC(=O)NC6=O)C8=O)c5)c(C(F)F)cc43)nn2C2CCOCC2)C1 (stereo not shown) [CP-067, 6-(5-(4-(1-(5-acetyl-1-(tetrahydro-2H-pyran-4-yl)-4,5,6,7-tetrahydro-1H-pyrazolo[4,3-c]pyridin-3-yl)-7-(difluoromethyl)-1,2,3,4-tetrahydroquinolin-6-yl)-1H-pyrazol-1-yl)pentyl)-2-(2,6-dioxopiperidin-3-yl)-6,7-dihydropyrrolo[3,4-f]isoindole-1,3(2H,5H)-dione] | > 90 | < 10 | < 100 | < 100 | – | – | – |
| CC(=O)N1CCc2c(c(N3CCCc4cc(-c5cnn(C)c5)c(C(F)F)cc43)nn2C2CCC(C(=O)N3CCc4cc5c(cc4C3)C(=O)N(C3CCC(=O)NC3=O)C5=O)CC2)C1 (stereo not shown) [CP-036, 6-(4-(5-acetyl-3-(7-(difluoromethyl)-6-(1-methyl-1H-pyrazol-4-yl)-3,4-dihydroquinolin-1(2H)-yl)-4,5,6,7-tetrahydro-1H-pyrazolo[4,3-c]pyridin-1-yl)cyclohexane-1-carbonyl)-2-(2,6-dioxopiperidin-3-yl)-5,6,7,8-tetrahydro-1H-pyrrolo[3,4-g]isoquinoline-1,3(2H)-dione] | – | < 10 | – | – | +++ (>90% = +++) | < 1000 | < 100 |
| CC(=O)N1CCc2c(c(N3CCCc4cc(-c5cnn(CCCN6CCc7cc8c(cc7C6)C(=O)N(C6CCC(=O)NC6=O)C8=O)c5)c(C(F)F)cc43)nn2C2CCOCC2)C1 (stereo not shown) [CP-074, 6-(3-(4-(1-(5-acetyl-1-(tetrahydro-2H-pyran-4-yl)-4,5,6,7-tetrahydro-1H-pyrazolo[4,3-c]pyridin-3-yl)-7-(difluoromethyl)-1,2,3,4-tetrahydroquinolin-6-y)-1H-pyrazol-1-yl)propyl)-2-(2,6-dioxopiperidin-3-yl)-5,6,7,8-tetrahydro-1H-pyrrolo[3,4-g]isoquinoline-1,3(2H)-dione] | < 50 | > 1000 | < 10000 | < 100 | – | – | – |
| CC(=O)N1CCc2c(c(N3CCCc4cc(-c5cnn(C)c5)c(C(F)F)cc43)nn2C2CCC(C(=O)N3Cc4cc5c(cc4C3)C(=O)N(C3CCC(=O)NC3=O)C5=O)CC2)C1 (stereo not shown) [CP-033, 6-(4-(5-acetyl-3-(7-(difluoromethyl)-6-(1-methyl-1H-pyrazol-4-yl)-3,4-dihydroquinolin-1(2H)-yl)-4,5,6,7-tetrahydro-1H-pyrazolo[4,3-c]pyridin-1-yl)cyclohexane-1-carbonyl)-2-(2,6-dioxopiperidin-3-yl)-6,7-dihydropyrrolo[3,4-f]isoindole-1,3(2H,5H)-dione] | > 90 | < 10 | – | < 100 | – | < 100 | – |
| CC(=O)N1CCc2c(c(N3CCCc4cc(-c5cnn(CCCCN6Cc7cc8c(cc7C6)C(=O)N(C6CCC(=O)NC6=O)C8=O)c5)c(C(F)F)cc43)nn2C2CCOCC2)C1 (stereo not shown) [CP-068, 6-(4-(4-(1-(5-acetyl-1-(tetrahydro-2H-pyran-4-yl)-4,5,6,7-tetrahydro-1H-pyrazolo[4,3-c]pyridin-3-yl)-7-(difluoromethyl)-1,2,3,4-tetrahydroquinolin-6-yl)-1H-pyrazol-1-yl)butyl)-2-(2,6-dioxopiperidin-3-yl)-6,7-dihydropyrrolo[3,4-f]isoindole-1,3(2H,5H)-dione] | > 90 | < 10 | < 100 | < 100 | – | – | – |
| CC(=O)N1CCc2c(c(N3CCCc4cc(-c5cnn(CCCCCN6CCc7cc8c(cc7C6)C(=O)N(C6CCC(=O)NC6=O)C8=O)c5)c(C(F)F)cc43)nn2C2CCOCC2)C1 (stereo not shown) [CP-069, 6-(5-(4-(1-(5-acetyl-1-(tetrahydro-2H-pyran-4-yl)-4,5,6,7-tetrahydro-1H-pyrazolo[4,3-c]pyridin-3-yl)-7-(difluoromethyl)-1,2,3,4-tetrahydroquinolin-6-yl)-1H-pyrazol-1-yl)pentyl)-2-(2,6-dioxopiperidin-3-yl)-5,6,7,8-tetrahydro-1H-pyrrolo[3,4-g]isoquinoline-1,3(2H)-dione] | > 70 | < 10 | < 1000 | < 100 | – | – | – |
| CC(=O)N1CCc2c(c(N3CCCc4cc(-c5cnn(C)c5)c(C(F)F)cc43)nn2C2CCC(CC(=O)N3CCc4cc5c(cc4C3)C(=O)N(C3CCC(=O)NC3=O)C5=O)CC2)C1 (stereo not shown) [CP-028, 6-(2-(4-(5-acetyl-3-(7-(difluoromethyl)-6-(1-methyl-1H-pyrazol-4-yl)-3,4-dihydroquinolin-1(2H)-yl)-4,5,6,7-tetrahydro-1H-pyrazolo[4,3-c]pyridin-1-yl)cyclohexyl)acetyl)-2-(2,6-dioxopiperidin-3-yl)-5,6,7,8-tetrahydro-1H-pyrrolo[3,4-g]isoquinoline-1,3(2H)-dione] | > 50 | < 10 | < 1000 | < 100 | – | – | – |
| CC(=O)N1CCc2c(c(N3CCCc4cc(-c5cnn(C)c5)c(C(F)F)cc43)nn2C2CCN(C(=O)CN3CCc4cc5c(cc4C3)C(=O)N(C3CCC(=O)NC3=O)C5=O)CC2)C1 (stereo not shown) [CP-001, 6-(2-(4-(5-acetyl-3-(7-(difluoromethyl)-6-(1-methyl-1H-pyrazol-4-yl)-3,4-dihydroquinolin-1(2H)-yl)-4,5,6,7-tetrahydro-1H-pyrazolo[4,3-c]pyridin-1-yl)piperidin-1-yl)-2-oxoethyl)-2-(2,6-dioxopiperidin-3-yl)-5,6,7,8-tetrahydro-1H-pyrrolo[3,4-g]isoquinoline-1,3(2H)-dione] | > 90 | < 10 | < 100 | < 100 | – | – | – |
